In paper PMC6508677, “Identification of druggable small molecule antagonists of the Plasmodium falciparum hexose transporter PfHT and assessment of ligand access to the glucose permeation pathway via FLAG-mediated protein engineering” (PLoS ONE, 2019):
Several values for one entry are separate records, joined by “and”; a condition that tells them apart may be missing. Equal entries are not always repeated. Where two headings read alike, the source gives them in different places.

Target: T1, hGLUT8 (Homo sapiens, UniProt Q9NY64, E7R/E8R)
T1 construct: expressed in transfected cells; host or cells: HEK293 (HEK293-FLIP, native hGLUT1 knocked down)
T1 sequence (Q9NY64 1-477 E7R/E8R): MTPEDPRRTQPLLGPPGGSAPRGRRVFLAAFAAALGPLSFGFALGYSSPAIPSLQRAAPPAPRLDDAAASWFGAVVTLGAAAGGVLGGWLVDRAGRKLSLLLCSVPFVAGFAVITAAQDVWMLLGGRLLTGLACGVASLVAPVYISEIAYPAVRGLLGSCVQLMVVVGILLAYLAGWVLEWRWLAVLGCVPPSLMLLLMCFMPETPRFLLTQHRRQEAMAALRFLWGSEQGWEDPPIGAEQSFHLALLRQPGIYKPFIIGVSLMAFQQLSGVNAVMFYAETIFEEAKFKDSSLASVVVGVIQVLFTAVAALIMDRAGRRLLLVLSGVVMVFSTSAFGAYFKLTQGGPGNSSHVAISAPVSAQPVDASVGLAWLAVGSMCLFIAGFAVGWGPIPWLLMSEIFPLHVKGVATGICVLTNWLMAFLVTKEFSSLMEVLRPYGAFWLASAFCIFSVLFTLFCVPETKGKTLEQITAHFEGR
Assay: 2-DG uptake by HEK293 cells overexpressing hGLUT8
Format: cell-based
Description: Generation of HEK293 cells overexpressing PfHT and human GLUTs 1–4 were described elsewhere. Briefly, HEK293 cells were transfected with pcDNA3.1 FLII12Pglu-7006 (Addgene), containing the fluorescence resonance energy transfer (FRET) glucose sensor (HEK293-FLIP) and PfHT, human GLUT1 (hGLUT1), hGLUT2, hGLUT3, hGLUT4, hGLUT5 or hGLUT8 using Optifect (Life Technologies) according to manufacturer’s specifications. To increase retention of GLUT8 at the plasma membrane, the dileucine sorting signal E^7E^8XXXLL was modified to R^7R^8XXXLL as described in [17]. Stable transfectants were selected for G418 and hygromycin resistance to select for FRET sensor and hexose transporter, respectively. HEK293-FLIP cells were also used to generate cells stably transfected with FLAG-tagged PfHT (FTPfHT). FLAG tag ([…]) followed by a triple glycine linker and a tobacco etch virus (TEV) protease site (ENLYFQS) followed by a triple glycine linker was added to the N-terminus of PfHT via PCR [18] using Phusion Hot Start II High-Fidelity DNA Polymerase (Fisher Scientific). Single clones were selected by comparing their abilities to transport glucose as assayed via FRET and radiolabeled hexose uptake. In all cell lines, except for HEK293 cells overexpressing hGLUT1 and hGLUT5, native hGLUT1 was knocked down using shRNA as described elsewhere. Transcript levels of the individual GLUTs expressed in each cell line are as described in [13, 15] and in S1 Fig.
Glucose uptake by P. falciparum was performed essentially as described. P. falciparum strain 3D7 was cultured in 100 mm tissue culture dishes (Techno Plastic Products) in a 2% suspension of human erythrocytes and RPMI 1640 medium until reaching > 7.5% parasitemia. Cells were pelleted via centrifugation and resuspended in RPMI 1640 medium. To determine the uptake of radiolabeled glucose into the parasite, parasites were isolated from infected erythrocytes by permeablization with saponin (0.05 w/v), followed by centrifugation, aspiration of supernatant and washing of the pellet 3X with saline solution (135 mM NaCl, 2 mM KCl, 25 mM HEPES, 0.2 mM glucose and 1 mM MgCl2; pH 7.1) to remove cellular debris. WU-1 or DMSO vehicle were added to 100 μl parasites (resuspended in saline) 5 min prior to the addition of 100 μl [^14C]2-DOG (0.2- μCi/ml final concentration). 2-DG uptake was stopped after 2 min by layering the entire reaction over 300 μl of an oil mixture (5:4 mix of dibutyl phthalate / dinonyl phthalate) in Eppendorf tubes and centrifuged at 15,850 × g for 2 mins. The ratio of the estimated intracellular concentration of radiolabel relative to the extracellular concentration were calculated as described. Uptake of radiolabeled hexose into HEK293 cells was measured in glucose-free HBSS as described previously. Briefly, cells were plated at 400,000 cells/well overnight at 37°C in 24-well plates pre-treated with PEI. After 30-min incubation at 37°C in glucose-free HBSS in the presence of vehicle or increasing concentrations of compound, 2-DG uptake was measured in glucose-free HBSS for 4 min at 37°C. Cultures were washed in ice-cold 1X PBS and lysed in 0.1% Triton X-100 in 1X PBS. Radiolabeled hexose uptake was determined by liquid scintillation counting (Ultima Gold, Thermo Fisher) and normalized to total protein per well. Uptake data are plotted as percent uptake relative to vehicle-treated cells. Kinetic analyses were performed using the indicated concentrations of substrate and WU-1, with quenching of uptake after 1 min incubation. Incubation times had been previously determined as being in the linear range of time-dependent radiolabeled hexose uptake (2 min for 2-DG uptake into freed parasites; 2 and 4 min for D-Frc and 2-DG uptake HEK cell lines, respectively). Data were fit by least squares nonlinear regression analysis using GraphPad Prism 6.0 software.

`Cc1ccc(S(=O)(=O)CCNC(=O)c2c(-c3c(Cl)cccc3Cl)noc2C)cc1` [WU-1, 3-(2,6-dichlorophenyl)-5-methyl-N-[2-(4-methylbenzenesulfonyl)ethyl]-1,2-oxazole-4-carboxamide] was tested. Which IC50 (GLUT8, 2-DG Uptake, average of Expt 1-3, read-out: AVE IC50) did it give?
Its IC50 is 25 µM.

What about the IC50 (GLUT8, 2-DG Uptake, single experiments Expt 1-3, read-out: IC50) of the same molecule?
The IC50 was 39.8 µM and 19.9 µM and 15.3 µM.

What about the IC50 (GLUT8 cell line, read-out: IC50, 2-DG uptake) of the same molecule?
The IC50 was 25 ± 7.5 µM.

And the remaining activity at 0.001 µM (HEK293, 4 min, GLUT8, concentration 0.001 µM, Expt 1-3, read-out: 2-DG Uptake AVE)?
The remaining activity at 0.001 µM was 100%.

What about the remaining activity at 0.3125 µM (HEK293, 4 min, GLUT8, concentration 0.3125 µM, read-out: 2-DG Uptake AVE) of the same molecule?
The remaining activity at 0.3125 µM was 104%.

What about the remaining activity at 0.625 µM (HEK293, 4 min, GLUT8, concentration 0.6250 µM, read-out: 2-DG Uptake AVE) of the same molecule?
The remaining activity at 0.625 µM was 95.3%.

What about the remaining activity at 1.25 µM (HEK293, 4 min, GLUT8, concentration 1.250 µM, read-out: 2-DG Uptake AVE) of the same molecule?
The remaining activity at 1.25 µM was 98.6%.

What about the remaining activity at 2.5 µM (HEK293, 4 min, GLUT8, concentration 2.500 µM, read-out: 2-DG Uptake AVE) of the same molecule?
The remaining activity at 2.5 µM was 97.5%.

What about the remaining activity at 5 µM (HEK293, 4 min, GLUT8, concentration 5.0 µM, read-out: 2-DG Uptake AVE) of the same molecule?
Its remaining activity at 5 µM is 88%.

What about the remaining activity at 20 µM (HEK293, 4 min, GLUT8, concentration 20 µM, read-out: 2-DG Uptake AVE) of the same molecule?
Its remaining activity at 20 µM is 60.6%.

And the remaining activity at 80 µM (HEK293, 4 min, GLUT8, concentration 80 µM, read-out: 2-DG Uptake AVE)?
The remaining activity at 80 µM was 41.2%.

And the remaining activity at 160 µM (HEK293, 4 min, GLUT8, concentration 160 µM, read-out: 2-DG Uptake AVE)?
The remaining activity at 160 µM was 25.7%.

What about the remaining activity at 225 µM (HEK293, 4 min, GLUT8, concentration 225 µM, read-out: 2-DG Uptake AVE) of the same molecule?
The remaining activity at 225 µM was 23.9%.

And the “Selectivity Index (PfHT over GLUT8), 2-DG” value (calculated from IC50s)?
The value was 4.3.
